A short description of test [1]: Antihypoxic action: survival time of mice in a decompressed desiccator. Conditions: Mus musculus, ip, read-out: survival time of drug-treated group (mean survival time of control group = 100). Format: in vivo, Male mice (ICR/Jcl strain). As to the method: Male mice (ICR/Jcl strain, 5-6 weeks old) were divided into two groups, i.e. a control group and a drug-treated group. A desiccator was decompressed to an internal pressure of 35 mmHg with a vacuum pump and, then, connected to two desiccators housing mice of the two groups, respectively. After an equilibrium was established in internal pressure among the desiccators, the time to the onset of respiratory arrest of each mouse in each group was measured and regarded as survival time. Then, taking the mean survival time in the control group as 100, the survival time of the drug-treated group was expressed in percentage (Table 7). The test drug was administered intraperitoneally 30 minutes before induction of hypoxia. The control group received physiological saline.

A short description of test [2]: Antiedematous action on the brain: microsphere-induced cerebral edema, water, sodium and ion contents of hemisphere. Type of test: in vivo, Male rats (Wistar/Jcl). The conditions noted are these: 72 hours after microsphere infusion. An excerpt: Male rats (Wistar/Jcl, 11 weeks old) underwent cervical incision under ether anesthesia and the pterygopalatine artery and external carotid artery were ligated. After blockade of the common carotid artery bloodstream, a cannula was inserted retrogradely from the external carotid artery and indwelt at the origin of the internal carotid artery. Then, a suspension of carbon microspheres (50±10 μm in diameter) in 20% dextran was infused selectively into the internal carotid artery through the indwelt cannula over a period of about 10 seconds. Seventy-two hours after infusion, the brain was removed and divided into the right and left cerebral hemispheres. Then, the water, sodium and ion contents of each hemisphere were determined. The test drug was administered intraperitoneally 30 minutes before and 5 hours after infusion of the microspheres on the day of microsphere infusion and twice a day, i.e. in the morning and in the afternoon, thereafter till the end of the experiment. 5% Gum arabic was used in the control group.

The target of test [3] is T1, cholinesterase (Rattus norvegicus, UniProt P37136).
T1 construct: the S1 fraction of the cerebral cortex homogenate from male Wistar rats was used as cholinesterase source; from tissue; host or cells: cerebral cortex homogenate, S1 fraction, male Wistar rats
T1 sequence (P37136 32-614): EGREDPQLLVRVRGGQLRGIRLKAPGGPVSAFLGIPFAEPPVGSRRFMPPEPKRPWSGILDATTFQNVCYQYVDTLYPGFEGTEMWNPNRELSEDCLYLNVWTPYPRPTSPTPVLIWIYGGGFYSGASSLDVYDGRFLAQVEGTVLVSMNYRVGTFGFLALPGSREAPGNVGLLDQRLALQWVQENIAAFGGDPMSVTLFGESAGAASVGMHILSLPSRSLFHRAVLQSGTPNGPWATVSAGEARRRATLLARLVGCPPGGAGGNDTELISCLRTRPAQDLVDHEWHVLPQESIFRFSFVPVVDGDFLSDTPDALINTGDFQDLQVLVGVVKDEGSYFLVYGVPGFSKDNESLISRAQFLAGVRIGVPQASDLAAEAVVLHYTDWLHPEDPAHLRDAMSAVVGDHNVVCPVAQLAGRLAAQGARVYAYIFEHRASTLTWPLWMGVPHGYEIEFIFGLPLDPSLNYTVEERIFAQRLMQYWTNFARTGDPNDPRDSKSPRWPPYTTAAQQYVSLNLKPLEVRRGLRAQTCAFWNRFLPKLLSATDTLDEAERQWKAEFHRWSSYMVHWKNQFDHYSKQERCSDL
Put plainly: Anti-cholinesterase action, (acetyl-[^3 H])-acetylcholine as substrate, S1 fraction of cerebral cortex homogenate. Type of test: biochemical, male Wistar rats. The procedure:
The anti-cholinesterase action of the compound of the present invention was investigated using (acetyl-[^3 H])-acetylcholine. Thus, the S1 fraction of the cerebral cortex homogenate from male Wistar rats was used as cholinesterase source, and (acetyl-[^3 H])-acetylcholine as the substrate and the compound of the invention as the test compound were incubated for 30 minutes and after termination of the reaction, a toluene scintillator was added. The mixture was shaken and the radioactivity of the reaction product [^3 H]-acetic acid in the toluene layer was measured with a scintillation counter to estimate the cholinesterase-antagonizing activity.
The anticholinesterase activity of the test compound was expressed as 50% inhibitory concentration (IC50) in Table 9.

Test [4] can be described thus: Action on scopolamine-induced impairment of spontaneous alternation in a T-maze. Format: in vivo, rats. As to the method: The nootropic effect of the compound of the invention (Example 59) was investigated using spontaneous alternation in rats (Murray and Fibiger, Behav Neurosci. 100, 23-32, 1986) as an indicator. Nine-week-old rats were used. Feeding was restricted so that the body weight of the rat would be reduced to about 80% of free-feeding weight. Then, training was started. Training consisted of 11 trials. In the first trial one food pellet (45 mg) was placed in each of food receptacles set at ends of two arms and the rat was allowed to select either arm freely for the food reward. In the subsequent 10 trials from the second to the eleventh trial, the diet was placed only on the arm opposite to the arm which had been selected immediately before. The selection of the arm where the diet was placed was regarded as a correct response. In each acquistion trial, the rat was first placed in a home compartment and 15 seconds later the door was opened to let the animal explore freely and select either arm. The rat was brought back to the home compartment after it had ingested the pellet in the case of a correct response or after it had reached the food receptacle in the case of an incorrect response. In the experiment, the rats which had attained the correct response rate of not less than 80% were used. Scopolamine bromide was administered intraperitoneally in a dose of 0.3 mg/kg 30 minutes before the beginning of the experiment and the test compound (Example 59) was administered orally 30 minutes before scopolamine administration. The results of the experiment are expressed in correct response rate. For the analysis of significant difference between the groups, Student's t-test (two-tailed) was used. In the first experiment, groups of 7-9 rats were used, and in the second experiment, groups of 12-14 rats were used. The results are shown in Table 10 (the results in the second experiment are shown in the parentheses).

[5] abbreviates: 10 mg/kg, i.p., 30 minutes before hypoxia, 35 mmHg.
Setting [6] is: 30 minutes incubation, read-out: Anticholinesterase activity IC50.

The text below walks through data of patent US5177087A, “Cyclic amine compounds and their use” (Takeda Chemical Industries, Ltd., priority 1989, dated 1993).

Where a name gives a salt, the structure may show the parent alone. Read-outs that look alike come from different tables or passages of the source.

With `O=C(c1ccc(N2CCN(Cc3ccccc3)CC2)cc1)C1CCNCC1` [Example 11-4], in test [1], the response vs control in vivo at 0.1 mg/kg came out at 116 ± 11%, the response vs control in vivo at 0.5 mg/kg came to 148 ± 17% and the response vs control in vivo at 2 mg/kg was determined as 288 ± 82%. Besides, the response vs control in vivo at 10 mg/kg in test [1] (setting [5]) amounted to 216 ± 53%.

For the molecule `OC(c1ccncc1)c1ccc(N2CCCCC2)cc1` (stereo not drawn) [Example 12, 4-[(α-Hydroxy-4-piperidino)benzyl]pyridine dihydrochloride], in test [1], the response vs control in vivo at 0.1 mg/kg was determined as 84 ± 4%, the response vs control in vivo at 0.5 mg/kg was determined as 152 ± 19% and the response vs control in vivo at 2 mg/kg came to 163 ± 23%. Moreover, in test [1] (setting [5]), the response vs control in vivo at 10 mg/kg came out at 132 ± 8%.

With `OC(c1ccc(N2CCC(Cc3ccccc3)CC2)cc1)C1CCNCC1` (centres unmarked) [Example 14-3], in test [1], the response vs control in vivo at 0.1 mg/kg was 108 ± 9%, the response vs control in vivo at 0.5 mg/kg is 162 ± 24% and the response vs control in vivo at 2 mg/kg is 137 ± 11%. In test [1] (setting [5]), the response vs control in vivo at 10 mg/kg stood at 398 ± 95%.

Turning to `OC(c1ccc(N2CCN(Cc3ccccc3)CC2)cc1)C1CCNCC1` (centres unmarked) [Example 14-4], in test [1], the response vs control in vivo at 0.5 mg/kg is 152 ± 28% and the response vs control in vivo at 2 mg/kg worked out at 188 ± 22%. For the same molecule, in test [1] (setting [5]), the response vs control in vivo at 10 mg/kg is 197 ± 32%.

Consider `OC(c1ccc(N2CCCCC2)cc1N1CCCCC1)C1CCNCC1` (centres unmarked) [Example 14-6], for which, in test [1], the response vs control in vivo at 0.1 mg/kg came to 120 ± 7%, the response vs control in vivo at 0.5 mg/kg is 154 ± 17% and the response vs control in vivo at 2 mg/kg came out at 143 ± 17%. Besides, in test [1] (setting [5]), the response vs control in vivo at 10 mg/kg is 123 ± 6%. The Water in test [2] (50 mg × 7, i.p., control group 80.35 ± 0.22) is reported as 79.36 ± 0.13%. Besides, the Na in test [2] (50 mg × 7, i.p., control group 305 ± 19) came out at 256 ± 5 mEq/kg. In addition, the K in test [2] (50 mg × 7, i.p., control group 488 ± 11) turned out to be 506 ± 5 mEq/kg.

Turning to `CN(C)c1ccc(CC2CCNCC2)cc1` [Example 20, 4-(4-Dimethylaminobenzyl)piperidine dihydrochloride], in test [1], the response vs control in vivo at 0.5 mg/kg was found to be 99 ± 5% and the response vs control in vivo at 2 mg/kg came to 118 ± 5%. The molecule further yielded a Water in test [2] (5 mg × 7, i.p., control group 80.59 ± 0.19) of 79.80 ± 0.19%. Also, the Na in test [2] (5 mg × 7, i.p., control group 306 ± 10) was found to be 268 ± 8 mEq/kg. Besides, the K in test [2] (5 mg × 7, i.p., control group 488 ± 2) came out at 499 ± 5 mEq/kg.

Turning to `c1cc(N2CCCCC2)ccc1CC1CCNCC1` [Example 21-1, 4-(4-piperidinobenzyl)piperidine dihydrochloride], in test [1], the response vs control in vivo at 0.1 mg/kg came to 133 ± 11%, the response vs control in vivo at 0.5 mg/kg came to 155 ± 21%, the response vs control in vivo at 2 mg/kg was 231 ± 59% and the response vs control in vivo at 10 mg/kg was 277 ± 55%.

`c1ccc(CC2CCN(c3ccc(CC4CCNCC4)cc3)CC2)cc1` [Example 21-2]: in test [1], the response vs control in vivo at 0.1 mg/kg was 165 ± 26%, the response vs control in vivo at 0.5 mg/kg came out at 147 ± 14% and the response vs control in vivo at 2 mg/kg was determined as 147 ± 8%. For the same molecule, the response vs control in vivo at 10 mg/kg in test [1] (setting [5]) came to 280 ± 59%.

As a reminder, the IC50 is the concentration at which inhibition is half-maximal. In test [3] (Anticholinesterase activity IC50, 30 minutes incubation), `O=C(CCC1CCN(Cc2ccccc2)CC1)c1ccc(N2CCCC2)cc1` [Example 59, 1-Benzyl-4-[2-(4-pyrrolidinobenzoyl)ethyl]piperidine] showed an IC50 of 27 nM. For the same molecule, the “Mean correct response rate ± standard error” value in test [4] (3 mg/kg p.o. + scopolamine 0.3 mg/kg i.p., first experiment, scopolamine control 53.8 ± 4.6) turned out to be 61.4 ± 7.1. Moreover, in test [4] (10 mg/kg), the “ameliorative effect on correct response rate” value is reported as “significant ameliorative effect”. The “antagonism of the decrease of correct response rate by scopolamine” value in test [4] (3 and 10 mg/kg p.o.) is given as “dose-dependently antagonized”.

As to `O=C(CCC1CCN(Cc2ccccc2)CC1)c1ccc(N2CCCCC2)cc1` [Example 60-1], the IC50 in test [3] (setting [6]) is 52 nM.

As for `O=C(CCC1CCN(Cc2ccccc2)CC1)c1ccc(N2CCCCCC2)cc1` [Example 60-2], the half-inhibitory concentration (IC50) in test [3] (setting [6]) was found to be 250 nM.

In the case of `CN(C)c1ccc(C(=O)CCC2CCN(Cc3ccccc3)CC2)cc1` [Example 60-3], the 50% inhibitory concentration (IC50) in test [3] (setting [6]) worked out at 53 nM.

`CCNc1ccc(C(=O)CCC2CCN(Cc3ccccc3)CC2)cc1` [Example 60-4]: the IC50 in test [3] (setting [6]) was 98 nM.

Regarding `O=C(CCC1CCN(Cc2ccccc2)CC1)c1ccc(N2CCOCC2)cc1` [Example 60-5], the IC50 in test [3] (setting [6]) was 10 nM.

For `O=C(CCC1CCN(Cc2ccccc2)CC1)c1ccc(-n2ccnc2)cc1` [Example 60-6], the 50% inhibitory concentration (IC50) in test [3] (setting [6]) turned out to be 20 nM.

As to `CN1CCN(c2ccc(C(=O)CCC3CCN(Cc4ccccc4)CC3)cc2)CC1` [Example 60-7], the IC50 in test [3] (setting [6]) amounted to 8.4 nM.

For `CNc1ccc(C(=O)CCC2CCN(Cc3ccccc3)CC2)cc1` [Example 60-8], in test [3] (setting [6]), the IC50 came out at 150 nM.

Take `O=C(CCC1CCN(Cc2ccccc2)CC1)c1ccc(N2CCCC2)cc1` [Example 60-10]: the IC50 in test [3] (setting [6]) is 40 nM.

For `O=C(CCC1CCN(Cc2ccccc2)CC1)c1ccc(N2CCCC2)cc1` [Example 60-11], in test [3] (setting [6]), the half-maximal inhibitory concentration (IC50) turned out to be 32 nM.

Consider `O=C(CCC1CCN(Cc2ccccc2)CC1)c1ccc(N2CCCC2)cc1` [Example 60-12], for which, in test [3] (setting [6]), the concentration for half-maximal inhibition (IC50) is 28 nM.

Consider `CN(C)c1ccc(C(=O)CCC2CCN(Cc3ccccc3)CC2)cc1` [Example 60-13], for which, in test [3] (setting [6]), the IC50 stood at 48 nM.

For `CN1CCN(c2ccc(C(=O)CCC3CCN(Cc4ccccc4)CC3)cc2)CC1` [Example 60-14], the 50% inhibitory concentration (IC50) in test [3] (setting [6]) is 6.8 nM.

As to `O=C(CCC1CCN(Cc2ccccc2)CC1)c1ccc(N2CCCCC2)cc1` [Example 60-15], the IC50 in test [3] (setting [6]) amounted to 61 nM.

As to `O=C(CCC1CCN(Cc2ccccc2)CC1)c1ccc(N2CCNCC2)cc1` [Example 60-17], the IC50 in test [3] (setting [6]) amounted to 6.1 nM.

As for `CC(=O)N1CCN(c2ccc(C(=O)CCC3CCN(Cc4ccccc4)CC3)cc2)CC1` [Example 60-19], in test [3] (setting [6]), the 50% inhibitory concentration (IC50) was 2.9 nM.

Turning to `O=C(CCC1CCN(Cc2ccccc2)CC1)c1ccc(N2CCOCC2)cc1` [Example 60-20], the 50% inhibitory concentration (IC50) in test [3] (setting [6]) was found to be 15 nM.

Consider `O=C(CCC1CCN(Cc2ccccc2)CC1)c1ccc(N2CCN(C(c3ccccc3)c3ccccc3)CC2)cc1` [Example 60-21], for which the IC50 in test [3] (setting [6]) came to 710 nM.

For the molecule `O=C(CCC1CCN(Cc2ccccc2)CC1)c1ccc(NCCN2CCCCC2)cc1` [Example 60-22], in test [3] (setting [6]), the half-maximal inhibitory concentration (IC50) worked out at 17 nM.

On to `O=C(CCCC1CCN(Cc2ccccc2)CC1)c1ccc(N2CCCC2)cc1` [Example 69, 1-Benzyl-4-[3-(4-pyrrolidinobenzoyl)propyl]piperidine fumarate], for which the IC50 in test [3] (setting [6]) was found to be 220 nM.
